In BindingDB's records for doi:10.1016/j.chembiol.2005.11.011 (Cyclacel, 2006):

Target: Cyclin-dependent kinase 2 (Homo sapiens, UniProt P24941)
Experiment: In Vitro Inhibition
Description: In vitro inhibition assay using human recombinant CDK2 and human recombinant cyclin A2.

- IC50: 250 nM
SMILES: O=[N+]([O-])c1cccc(Nc2nccc(-c3cccc(Cn4cncn4)c3)n2)c1 [N-(3-nitrophenyl)-4-[3-(1H-1,2,4-triazol-1-ylmethyl)phenyl]pyrimidin-2-amine, 6]
